According to patent US8211935B2, “Heterocyclic derivatives for modulation of calcium channels” (Vertex Pharmaceuticals Incorporated, priority 2004, dated 2012):
pIC50: −log10 of the molar value. Like-named read-outs stand apart in the source and are kept apart here.

Biological target: T1, CaV2.2 (Homo sapiens, UniProt Q00975)
T1 construct: expressed in transfected cells; host or cells: HEK293
Test: VIPR optical membrane potential assay with electrical stimulation
Format: cell-based
Summary of the method: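 HEK293 cells stably expressing CaV2.2, stained with CC2-DMPE (10 μM final) and oxonol voltage-sensitive dyes, compound added with BaCl2. Membrane potential response evoked by 3-5 s electrical stimulation. Read as background-subtracted 460/580 nm emission ratio, response R=Rf/Ri, normalized to mibefradil positive and no-drug negative controls.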

[1] = Table 3, biological assay data, read-out: IC50

T1 sequence (Q00975 whole entry): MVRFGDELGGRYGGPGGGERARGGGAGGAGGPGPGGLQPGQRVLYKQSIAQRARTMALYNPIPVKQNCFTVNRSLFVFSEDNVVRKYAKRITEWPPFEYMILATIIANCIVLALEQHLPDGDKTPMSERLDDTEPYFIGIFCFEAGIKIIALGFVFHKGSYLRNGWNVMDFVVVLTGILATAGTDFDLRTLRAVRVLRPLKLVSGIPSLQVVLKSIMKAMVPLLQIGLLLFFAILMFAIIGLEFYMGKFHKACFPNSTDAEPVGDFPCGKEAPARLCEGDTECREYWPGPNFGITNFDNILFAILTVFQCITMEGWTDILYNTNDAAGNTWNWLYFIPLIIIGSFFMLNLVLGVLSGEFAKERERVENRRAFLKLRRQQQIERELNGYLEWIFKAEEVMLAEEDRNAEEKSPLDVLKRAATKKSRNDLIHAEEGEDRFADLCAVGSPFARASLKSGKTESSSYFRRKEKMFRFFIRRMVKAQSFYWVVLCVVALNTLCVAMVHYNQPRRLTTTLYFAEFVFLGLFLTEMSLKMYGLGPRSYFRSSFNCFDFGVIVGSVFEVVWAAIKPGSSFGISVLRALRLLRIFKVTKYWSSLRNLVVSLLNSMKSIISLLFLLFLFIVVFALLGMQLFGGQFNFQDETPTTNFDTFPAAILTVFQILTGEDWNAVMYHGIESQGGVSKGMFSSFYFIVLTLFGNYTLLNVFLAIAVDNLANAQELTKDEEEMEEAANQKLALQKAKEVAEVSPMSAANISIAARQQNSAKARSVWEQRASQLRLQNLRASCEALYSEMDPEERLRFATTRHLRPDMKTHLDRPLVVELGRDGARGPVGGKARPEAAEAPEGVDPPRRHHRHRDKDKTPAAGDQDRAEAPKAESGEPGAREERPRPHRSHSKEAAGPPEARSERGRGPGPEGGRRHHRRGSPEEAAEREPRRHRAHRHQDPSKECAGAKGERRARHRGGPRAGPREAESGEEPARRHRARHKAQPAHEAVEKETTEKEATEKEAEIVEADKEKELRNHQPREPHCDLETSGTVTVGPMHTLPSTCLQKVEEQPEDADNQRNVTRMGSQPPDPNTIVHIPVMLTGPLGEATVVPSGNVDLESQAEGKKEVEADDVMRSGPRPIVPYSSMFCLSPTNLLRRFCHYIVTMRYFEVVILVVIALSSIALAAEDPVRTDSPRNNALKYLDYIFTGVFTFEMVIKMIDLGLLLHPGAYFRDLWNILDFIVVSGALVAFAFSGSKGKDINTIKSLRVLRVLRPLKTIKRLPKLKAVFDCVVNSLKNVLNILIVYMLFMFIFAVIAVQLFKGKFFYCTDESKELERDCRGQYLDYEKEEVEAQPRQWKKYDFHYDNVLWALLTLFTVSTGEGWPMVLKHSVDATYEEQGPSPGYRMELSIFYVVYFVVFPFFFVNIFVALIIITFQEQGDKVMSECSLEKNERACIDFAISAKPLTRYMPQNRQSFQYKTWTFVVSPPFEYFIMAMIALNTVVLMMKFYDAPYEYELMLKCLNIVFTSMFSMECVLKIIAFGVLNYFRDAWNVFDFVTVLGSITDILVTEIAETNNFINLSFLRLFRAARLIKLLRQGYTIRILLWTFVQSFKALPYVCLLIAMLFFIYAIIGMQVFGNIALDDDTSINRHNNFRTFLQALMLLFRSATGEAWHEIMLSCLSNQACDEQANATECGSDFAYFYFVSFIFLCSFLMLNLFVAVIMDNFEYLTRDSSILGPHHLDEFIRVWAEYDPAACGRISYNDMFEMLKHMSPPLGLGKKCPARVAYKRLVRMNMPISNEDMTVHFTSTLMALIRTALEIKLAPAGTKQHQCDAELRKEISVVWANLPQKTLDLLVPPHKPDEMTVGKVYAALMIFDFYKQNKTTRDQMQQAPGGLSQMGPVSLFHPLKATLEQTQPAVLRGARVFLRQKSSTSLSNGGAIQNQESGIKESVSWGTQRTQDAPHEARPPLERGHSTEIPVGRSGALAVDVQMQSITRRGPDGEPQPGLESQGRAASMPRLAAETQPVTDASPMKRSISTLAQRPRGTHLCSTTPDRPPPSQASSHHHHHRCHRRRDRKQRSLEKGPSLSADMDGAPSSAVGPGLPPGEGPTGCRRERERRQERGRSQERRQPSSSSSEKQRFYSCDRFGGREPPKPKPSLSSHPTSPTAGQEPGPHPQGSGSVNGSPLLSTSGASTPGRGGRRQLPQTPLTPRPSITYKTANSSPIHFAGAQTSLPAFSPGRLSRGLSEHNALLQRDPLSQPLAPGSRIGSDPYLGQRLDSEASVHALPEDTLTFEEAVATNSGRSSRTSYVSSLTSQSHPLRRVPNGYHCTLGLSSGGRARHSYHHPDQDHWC
T1 sequence (P54284 whole entry partner): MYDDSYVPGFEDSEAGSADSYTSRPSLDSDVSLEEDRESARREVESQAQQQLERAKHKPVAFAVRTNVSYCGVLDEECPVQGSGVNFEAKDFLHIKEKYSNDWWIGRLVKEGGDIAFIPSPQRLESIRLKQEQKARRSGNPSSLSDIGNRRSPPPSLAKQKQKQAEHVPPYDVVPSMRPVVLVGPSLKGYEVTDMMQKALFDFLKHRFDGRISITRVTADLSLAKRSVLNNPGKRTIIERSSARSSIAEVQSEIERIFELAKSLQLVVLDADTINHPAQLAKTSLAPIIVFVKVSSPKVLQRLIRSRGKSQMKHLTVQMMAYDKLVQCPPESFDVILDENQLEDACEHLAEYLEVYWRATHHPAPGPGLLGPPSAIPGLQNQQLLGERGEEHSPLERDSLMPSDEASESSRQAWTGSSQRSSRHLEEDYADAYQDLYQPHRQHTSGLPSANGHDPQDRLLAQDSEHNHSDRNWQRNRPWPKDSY
T1 sequence (P54289 25-946 partner limits assumed): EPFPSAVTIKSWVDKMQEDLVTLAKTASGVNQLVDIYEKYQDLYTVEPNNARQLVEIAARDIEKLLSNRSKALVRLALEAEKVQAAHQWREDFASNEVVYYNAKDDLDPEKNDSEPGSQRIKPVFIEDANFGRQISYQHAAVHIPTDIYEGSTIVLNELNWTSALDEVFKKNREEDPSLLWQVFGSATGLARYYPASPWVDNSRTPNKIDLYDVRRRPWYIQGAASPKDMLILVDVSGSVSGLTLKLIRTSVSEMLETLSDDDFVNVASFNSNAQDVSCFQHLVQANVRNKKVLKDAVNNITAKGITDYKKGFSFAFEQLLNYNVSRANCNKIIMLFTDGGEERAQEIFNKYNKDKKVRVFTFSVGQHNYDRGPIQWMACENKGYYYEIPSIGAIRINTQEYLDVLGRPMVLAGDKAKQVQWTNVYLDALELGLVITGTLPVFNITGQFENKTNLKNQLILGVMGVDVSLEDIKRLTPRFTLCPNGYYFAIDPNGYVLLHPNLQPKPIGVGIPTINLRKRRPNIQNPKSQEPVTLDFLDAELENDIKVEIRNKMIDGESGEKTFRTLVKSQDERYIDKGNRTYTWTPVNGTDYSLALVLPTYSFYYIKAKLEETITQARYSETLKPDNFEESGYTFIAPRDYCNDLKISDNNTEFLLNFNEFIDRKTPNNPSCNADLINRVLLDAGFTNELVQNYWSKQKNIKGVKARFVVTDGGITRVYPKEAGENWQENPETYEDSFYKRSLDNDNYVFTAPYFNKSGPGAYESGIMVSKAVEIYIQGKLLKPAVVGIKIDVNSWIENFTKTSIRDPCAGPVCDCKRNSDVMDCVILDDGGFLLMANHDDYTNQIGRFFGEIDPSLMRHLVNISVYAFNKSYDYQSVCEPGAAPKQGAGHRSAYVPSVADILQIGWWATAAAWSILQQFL
T1 sequence (P54289 947-1103 partner limits assumed): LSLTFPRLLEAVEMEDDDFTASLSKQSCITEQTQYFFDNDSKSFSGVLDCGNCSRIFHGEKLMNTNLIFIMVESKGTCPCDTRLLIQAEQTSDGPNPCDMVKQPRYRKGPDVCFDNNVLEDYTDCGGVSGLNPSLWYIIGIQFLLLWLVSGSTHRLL

## CCN(CC)C(=O)c1cc2cc(S(=O)(=O)N3CCC(C)CC3)ccc2o1 [compound 268]
[1]
  pIC50: > 5.30

## Cc1c(C(=O)N2CCC(C)CC2)[nH]c2ccc(S(=O)(=O)N3CCC(C)CC3)cc12 [compound 269]
[1]
  pIC50: 4.70 to 5.30

## O=C(NC1CC1)c1cc2cc(N(C3CCCCC3)S(=O)(=O)c3ccccc3)ccc2[nH]1 [compound 270]
[1]
  pIC50: 4.70 to 5.30

## CC1CC(C)CN(S(=O)(=O)c2ccc3oc(C(=O)NC(C)C)cc3c2)C1 (stereo not shown) [compound 271]
[1]
  pIC50: > 5.30

## O=C(c1cc2cc(S(=O)(=O)N3CCCCCC3)ccc2[nH]1)N1CCCC1 [compound 272]
[1]
  pIC50: > 4.70

## CC1CCN(C(=O)c2cc3cc(S(=O)(=O)N4CCC(C)CC4)ccc3o2)CC1 [compound 273]
[1]
  pIC50: > 5.30

## CC1CC(C)CN(S(=O)(=O)c2ccc3[nH]c(C(=O)NC(C)C)cc3c2)C1 (stereo not shown) [compound 274]
[1]
  pIC50: > 5.30

## CC1CC(C)CN(S(=O)(=O)c2ccc3[nH]c(C(=O)NCC4CCOCC4)cc3c2)C1 (stereo not shown) [compound 275]
[1]
  pIC50: > 5.30

## CC1CC(C)CN(S(=O)(=O)c2ccc3oc(C(=O)NCc4ccccc4)cc3c2)C1 (stereo not shown) [compound 276]
[1]
  pIC50: > 5.30

## Cc1c(C(=O)N(C)C)oc2ccc(S(=O)(=O)N3CCCCC3)cc12 [compound 277]
[1]
  pIC50: > 4.70

## CCN(CC)S(=O)(=O)c1ccc2oc(C(=O)N(C(C)C)C(C)C)c(C)c2c1 [compound 278]
[1]
  pIC50: 4.70 to 5.30

## Cc1c(C(=O)N2CCC(C)CC2)oc2ccc(S(=O)(=O)N3CCCCC3)cc12 [compound 279]
[1]
  pIC50: 4.70 to 5.30

## Cc1c(C(=O)N2CCCC(C)C2)oc2ccc(S(=O)(=O)N3CCCCC3)cc12 (stereo not shown) [compound 280]
[1]
  pIC50: 4.70 to 5.30

## Cc1c(C(=O)NCC2CCCO2)[nH]c2ccc(S(=O)(=O)N3CC(C)CC(C)C3)cc12 (stereo not shown) [compound 281]
[1]
  pIC50: > 5.30

## COc1ccc(CNC(=O)c2oc3ccc(S(=O)(=O)N4CCC(C)CC4)cc3c2C)cc1 [compound 282]
[1]
  pIC50: > 5.30

## Cc1c(C(=O)NCc2ccccc2)[nH]c2ccc(S(=O)(=O)N3CC(C)CC(C)C3)cc12 (stereo not shown) [compound 283]
[1]
  pIC50: > 5.30

## Cc1c(C(=O)N(C(C)C)C(C)C)oc2ccc(S(=O)(=O)N3CC(C)CC(C)C3)cc12 (stereo not shown) [compound 284]
[1]
  pIC50: > 5.30

## CC1CCN(S(=O)(=O)c2ccc3[nH]c(C(=O)N(C)Cc4ccccc4)cc3c2)CC1 [compound 285]
[1]
  pIC50: > 5.30

## CS(=O)(=O)Nc1ccc2[nH]c(C(=O)NC3CC3)cc2c1 [compound 286]
[1]
  pIC50: > 4.70

## Cc1c(C(=O)N2CCC3(CC2)OCCO3)oc2ccc(S(=O)(=O)N3CCC(C)CC3)cc12 [compound 287]
  pIC50: 4.70 to 5.30

## Cc1ccc(NS(=O)(=O)c2ccc3oc(C(=O)NC4CC4)c(C)c3c2)cc1 [compound 288]
[1]
  pIC50: 4.70 to 5.30

## CC1CC(C)CN(S(=O)(=O)c2ccc3[nH]c(C(=O)NCCc4ccccc4)cc3c2)C1 (stereo not shown) [compound 289]
[1]
  pIC50: > 5.30

## Cc1c(C(=O)N2CCN(C)CC2)[nH]c2ccc(S(=O)(=O)N3CCC(C)CC3)cc12 [compound 290]
[1]
  pIC50: 4.70 to 5.30

## CCN(CC)S(=O)(=O)c1ccc2oc(C(=O)NCCc3ccccc3)c(C)c2c1 [compound 291]
[1]
  pIC50: 4.70 to 5.30

## COc1ccc(S(=O)(=O)n2c(C(=O)N3CCCCC3)cc3cc(S(=O)(=O)N4CC(C)CC(C)C4)ccc32)cc1 (stereo not shown) [compound 292]
[1]
  pIC50: > 5.30

## CC1CCN(S(=O)(=O)c2ccc3oc(C(=O)N4CC(C)CC(C)C4)cc3c2)CC1 (stereo not shown) [compound 293]
[1]
  pIC50: > 5.30

## Cc1c(C(=O)NC2CCCC2)oc2ccc(S(=O)(=O)N3CCCCCC3)cc12 [compound 294]
[1]
  pIC50: > 5.30

## CNC(=O)c1cc2cc(S(=O)(=O)N3CCCCCC3)ccc2o1 [compound 295]
[1]
  pIC50: 4.70 to 5.30

## O=C(NC1CCCCC1)c1cc2cc(S(=O)(=O)N3CCCCCC3)ccc2[nH]1 [compound 296]
[1]
  pIC50: > 4.70

## Cc1c(C(=O)N2CCCCC2C)[nH]c2ccc(S(=O)(=O)N3CC(C)CC(C)C3)cc12 (stereo not shown) [compound 297]
[1]
  pIC50: > 5.30

## CCN(CC)S(=O)(=O)c1ccc2oc(C(=O)NCc3ccc(C)cc3)c(C)c2c1 [compound 298]
[1]
  pIC50: 4.70 to 5.30

## Cc1c(C(=O)N2CCC3(CC2)OCCO3)oc2ccc(S(=O)(=O)N3CCCC(C)C3)cc12 (stereo not shown) [compound 299]
  pIC50: 4.70 to 5.30

## Cc1c(C(=O)N2CCCCC2)oc2ccc(S(=O)(=O)N3CCCC(C)C3)cc12 (stereo not shown) [compound 300]
[1]
  pIC50: > 5.30

## CCNC(=O)c1[nH]c2ccc(S(=O)(=O)N3CCC(C)CC3)cc2c1C [compound 301]
[1]
  pIC50: 4.70 to 5.30

## Cc1c(C(=O)NC2CC2)oc2ccc(S(=O)(=O)NCc3ccncc3)cc12 [compound 302]
[1]
  pIC50: > 4.70

## CNC(=O)c1cc2cc(S(=O)(=O)N3CCCCCC3)ccc2[nH]1 [compound 303]
[1]
  pIC50: > 5.30

## O=C(NC1CCCC1)c1cc2cc(S(=O)(=O)N3CCCCCC3)ccc2o1 [compound 304]
[1]
  pIC50: > 5.30

## Cc1c(C(=O)NCc2ccccc2)oc2ccc(S(=O)(=O)N3CCCCC3)cc12 [compound 305]
[1]
  pIC50: 4.70 to 5.30

## CC1CCN(S(=O)(=O)c2ccc3[nH]cc(C(N)=O)c3c2)CC1 [compound 306]
[1]
  pIC50: > 4.70

## Cc1c(C(=O)N2CCC(C)CC2)oc2ccc(S(=O)(=O)N3CCCCCC3)cc12 [compound 307]
[1]
  pIC50: > 5.30

## CCN(CC)S(=O)(=O)c1ccc2oc(C(=O)N(C)Cc3ccccc3)c(C)c2c1 [compound 308]
[1]
  pIC50: > 5.30

## Cc1c(C(=O)NC2CCCCC2)[nH]c2ccc(S(=O)(=O)N3CCCCCC3)cc12 [compound 309]
[1]
  pIC50: > 5.30

## CCNC(=O)c1oc2ccc(S(=O)(=O)N3CCCC(C)C3)cc2c1C (stereo not shown) [compound 310]
[1]
  pIC50: 4.70 to 5.30

## CC1CCN(S(=O)(=O)c2ccc3oc(C(=O)N4CCCCC4)cc3c2)CC1 [compound 311]
[1]
  pIC50: > 5.30

## CN(c1ccc2[nH]c(C(=O)NC3CC3)cc2c1)S(=O)(=O)c1ccccc1 [compound 312]
[1]
  pIC50: 4.70 to 5.30

## CC1CCN(S(=O)(=O)c2ccc3[nH]c(C(=O)N4CCN(C)CC4)cc3c2)CC1 [compound 313]
[1]
  pIC50: 4.70 to 5.30

## CCN(CC)C(=O)c1cc2cc(S(=O)(=O)N3CC(C)CC(C)C3)ccc2n1CC(O)CN(C)C (stereo not shown) [compound 314]
[1]
  pIC50: 4.70 to 5.30

## CCN(CC)C(=O)c1cc2cc(S(=O)(=O)N3CCC(C)CC3)ccc2[nH]1 [compound 315]
[1]
  pIC50: > 5.30

## Cc1c(C(=O)NC2CC2)oc2ccc(S(=O)(=O)Nc3ncns3)cc12 [compound 316]
[1]
  pIC50: > 4.70

## Cc1c(C(=O)N(C)Cc2ccccc2)oc2ccc(S(=O)(=O)N3CCCCCC3)cc12 [compound 317]
[1]
  pIC50: > 5.30

## CCN(CC)S(=O)(=O)c1ccc2oc(C(=O)NCCCc3ccccc3)c(C)c2c1 [compound 318]
[1]
  pIC50: 4.70 to 5.30

## CC1CCN(S(=O)(=O)c2ccc3[nH]c(C(=O)N4CC(C)CC(C)C4)cc3c2)CC1 (stereo not shown) [compound 319]
[1]
  pIC50: 4.70 to 5.30

## Cc1c(C(=O)NCCC2=CCCCC2)oc2ccc(S(=O)(=O)N3CCC4(CC3)OCCO4)cc12 [compound 320]
[1]
  pIC50: 4.70 to 5.30

## CCCCN(C)C(=O)c1oc2ccc(S(=O)(=O)N3CC(C)CC(C)C3)cc2c1C (stereo not shown) [compound 321]
[1]
  pIC50: > 5.30

## CCN(CC)S(=O)(=O)c1ccc2oc(C(=O)NCCC3CCOCC3)c(C)c2c1 [compound 322]
[1]
  pIC50: > 4.70

## CC1CC(C)CN(S(=O)(=O)c2ccc3[nH]c(C(=O)NCCCc4ccccc4)cc3c2)C1 (stereo not shown) [compound 323]
[1]
  pIC50: > 5.30

## Cc1c(C(=O)N2CCCC2)[nH]c2ccc(S(=O)(=O)N3CC(C)CC(C)C3)cc12 (stereo not shown) [compound 324]
[1]
  pIC50: > 5.30

## CCCCN(C)C(=O)c1oc2ccc(S(=O)(=O)N3CCC(C)CC3)cc2c1C [compound 325]
[1]
  pIC50: > 5.30

## CCN(CC)Cc1cc2cc(S(=O)(=O)N3CCC(C)CC3)ccc2[nH]1 [compound 326]
[1]
  pIC50: > 5.30

## CC1CC(C)CN(S(=O)(=O)c2ccc3oc(C(=O)NCC4CCOCC4)cc3c2)C1 (stereo not shown) [compound 327]
[1]
  pIC50: > 5.30

## CCOC(=O)N1CCN(C(=O)c2oc3ccc(S(=O)(=O)N(CC)CC)cc3c2C)CC1 [compound 328]
[1]
  pIC50: > 4.70

## CC1CC(C)CN(S(=O)(=O)c2ccc3[nH]c(C(=O)NC4CCCCC4)cc3c2)C1 (stereo not shown) [compound 329]
[1]
  pIC50: 4.70 to 5.30

## Cc1c(C(=O)N2CCCCCC2)oc2ccc(S(=O)(=O)N3CC(C)CC(C)C3)cc12 (stereo not shown) [compound 330]
[1]
  pIC50: > 5.30

## Cc1c(C(=O)NC2CCCCC2)[nH]c2ccc(S(=O)(=O)N3CC(C)CC(C)C3)cc12 (stereo not shown) [compound 331]
[1]
  pIC50: > 5.30

## CCN(CC)S(=O)(=O)c1ccc2oc(C(=O)N3CCCC3)c(C)c2c1 [compound 332]
[1]
  pIC50: > 4.70

## CC1CC(C)CN(S(=O)(=O)c2ccc3oc(C(=O)N4CCCCC4C)cc3c2)C1 (stereo not shown) [compound 333]
[1]
  pIC50: 4.70 to 5.30

## Cc1c(C(=O)N2CCCCC2C)oc2ccc(S(=O)(=O)N3CCCCCC3)cc12 (stereo not shown) [compound 334]
[1]
  pIC50: 4.70 to 5.30

## O=C(NCCC1CCOCC1)c1cc2cc(S(=O)(=O)N3CCCCCC3)ccc2[nH]1 [compound 335]
[1]
  pIC50: > 5.30

## CCOC(=O)C1CCN(C(=O)c2oc3ccc(S(=O)(=O)N4CC(C)CC(C)C4)cc3c2C)CC1 (stereo not shown) [compound 336]
[1]
  pIC50: > 5.30

## CCN(CC)S(=O)(=O)c1ccc2oc(C(=O)NCc3ccc(F)cc3)c(C)c2c1 [compound 337]
[1]
  pIC50: > 5.30

## CC1CCN(S(=O)(=O)c2ccc3[nH]cc(C(=O)N4CCN(C)CC4)c3c2)CC1 [compound 338]
[1]
  pIC50: > 4.70

## CC1CCN(C(=O)c2cc3cc(S(=O)(=O)N4CC(C)CC(C)C4)ccc3o2)CC1 (stereo not shown) [compound 339]
[1]
  pIC50: > 5.30

## CC1CCN(S(=O)(=O)c2ccc3[nH]c(C(=O)NCCc4ccccc4)cc3c2)CC1 [compound 340]
[1]
  pIC50: > 5.30

## CCN(CC)S(=O)(=O)c1ccc2oc(C(=O)N3CCCCCC3)c(C)c2c1 [compound 341]
[1]
  pIC50: 4.70 to 5.30

## Cc1c(C(=O)N2CCC(C)CC2)[nH]c2ccc(S(=O)(=O)N3CCCCCC3)cc12 [compound 342]
[1]
  pIC50: > 5.30

## Cc1c(C(=O)N2CCC3(CC2)OCCO3)oc2ccc(S(=O)(=O)N3CC(C)CC(C)C3)cc12 (stereo not shown) [compound 343]
  pIC50: 4.70 to 5.30

## CC1CC(C)CN(S(=O)(=O)c2ccc3[nH]c(C(=O)N4CCC5(CC4)OCCO5)cc3c2)C1 (stereo not shown) [compound 344]
  pIC50: > 5.30

## CC1CCN(S(=O)(=O)c2ccc3[nH]c(C(=O)NCC4CCOCC4)cc3c2)CC1 [compound 345]
[1]
  pIC50: > 5.30

## CCOC(=O)N1CCN(C(=O)c2cc3cc(S(=O)(=O)N4CC(C)CC(C)C4)ccc3o2)CC1 (stereo not shown) [compound 346]
[1]
  pIC50: > 5.30
